Experimental data published in PubChem BioAssay AID328 (DTP/NCI, 2004).
Several values for one entry are separate records, joined by “and”; a condition that tells them apart may be missing. Identical values can stand only once. Toxic doses and inconclusive results are not listed. The calls were made as follows: active = survival T/C of 150% or more; inactive = T/C below 125% in these data.

System: BDF1 mice, P388 leukemia ip, median survival T/C
Assay: NCI In Vivo Anticancer Drug Screen. Data for tumor model P388 Leukemia (intraperitoneal) in B6D2F1 (BDF1) mice
Settings: endpoint: median survival time, higher = longer survival
Summary of the method: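 Steps: implant the tumour, treat one group with compound and another with vehicle, record survival, then divide treated by control.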

[1] = dose: 100.0 mg/kg/injection, schedule: Q04DX003 (ip), vehicle: Klucel (hydroxypropylcellulose) (HPC)
[2] = dose: 200.0 mg/kg/injection, schedule: Q04DX003 (ip), vehicle: saline with Tween-80
[3] = dose: 100.0 mg/kg/injection, schedule: Q01DX009 (ip), vehicle: Klucel (hydroxypropylcellulose) (HPC)
[4] = dose: 200.0 mg/kg/injection, schedule: Q01DX009 (ip), vehicle: Klucel (hydroxypropylcellulose) (HPC)
[5] = dose: 200.0 mg/kg/injection, schedule: Q04DX003 (ip), vehicle: Klucel (hydroxypropylcellulose) (HPC)
[6] = dose: 400.0 mg/kg/injection, schedule: Q01DX009 (ip), vehicle: Klucel (hydroxypropylcellulose) (HPC)
[7] = dose: 400.0 mg/kg/injection, schedule: Q04DX003 (ip), vehicle: Klucel (hydroxypropylcellulose) (HPC)
[8] = dose: 100.0 mg/kg/injection, schedule: Q04DX003 (ip), vehicle: saline with Tween-80
[9] = dose: 50.0 mg/kg/injection, schedule: Q01DX009 (ip), vehicle: saline with Tween-80
[10] = dose: 100.0 mg/kg/injection, schedule: Q01DX009 (ip), vehicle: saline with Tween-80
[11] = dose: 200.0 mg/kg/injection, schedule: Q01DX009 (ip), vehicle: saline with Tween-80
[12] = dose: 400.0 mg/kg/injection, schedule: Q01DX009 (ip), vehicle: saline with Tween-80
[13] = dose: 400.0 mg/kg/injection, schedule: Q04DX003 (ip), vehicle: saline with Tween-80
[14] = dose: 100.0 mg/kg/injection, schedule: Q01DX009 (ip), vehicle: saline
[15] = dose: 400.0 mg/kg/injection, schedule: Q01DX009 (ip), vehicle: saline

Measured: T/C

c1cc2c(c(CC3CO3)c1CC1CO1)OCCOCCOCCOCCO2 (stereo unspecified)
inactive: dose: 6.0 mg/kg/injection, schedule: Q01DX009 (ip), vehicle: saline + alcohol 98 % of control and 105 % of control | dose: 12.0 mg/kg/injection, schedule: Q01DX009 (ip), vehicle: saline + alcohol 108 % of control | dose: 24.0 mg/kg/injection, schedule: Q01DX009 (ip), vehicle: saline + alcohol 113 % of control

CC1=CC2=C(C=O)C(=O)[C@](C)(O)[C@@H](O)C2=CO1
inactive: dose: 44.0 mg/kg/injection, schedule: Q04DX003 (ip), vehicle: Klucel (hydroxypropylcellulose) (HPC) 101 % of control | dose: 44.0 mg/kg/injection, schedule: Q04DX003 (ip), vehicle: saline with Tween-80 108 % of control and 114 % of control | dose: 66.0 mg/kg/injection, schedule: Q04DX003 (ip), vehicle: Klucel (hydroxypropylcellulose) (HPC) 115 % of control | dose: 66.0 mg/kg/injection, schedule: Q04DX003 (ip), vehicle: saline with Tween-80 116 % of control | [1] 108 % of control | dose: 150.0 mg/kg/injection, schedule: Q04DX003 (ip), vehicle: saline with Tween-80 108 % of control | [2] 95 % of control

O=C1CCCSc2ccccc21
inactive: [3] 120 % of control | [1] 100 % of control | [4] 115 % of control | [5] 100 % of control | [6] 115 % of control | [7] 100 % of control

COc1ccc2c(c1)N=C1CCCC3CCCCC123 (stereo unspecified)
inactive: [8] 99 % of control | [2] 114 % of control

CC(O)c1nc(N)nc(N)c1-c1ccc(Cl)cc1 (stereo unspecified)
inactive: dose: 100.0 mg/kg/injection, schedule: Q01DX001 (ip), vehicle: saline with Tween-80 106 % of control | dose: 200.0 mg/kg/injection, schedule: Q01DX001 (ip), vehicle: saline with Tween-80 100 % of control

Cc1occc(=O)c1O
inactive: [9] 88 % of control | [10] 117 % of control | [11] 90 % of control | [12] 106 % of control

CC(/C=C/c1ccccc1)=N\O
inactive: dose: 100.0 mg/kg/injection, schedule: Q04DX003 (ip), vehicle: saline sonified 90 % of control | dose: 200.0 mg/kg/injection, schedule: Q04DX003 (ip), vehicle: saline sonified 90 % of control | dose: 400.0 mg/kg/injection, schedule: Q04DX003 (ip), vehicle: saline sonified 90 % of control

C/C(=C/CC(=O)O)C(=O)O
inactive: dose: 12.5 mg/kg/injection, schedule: Q04DX003 (ip), vehicle: water 119 % of control | dose: 25.0 mg/kg/injection, schedule: Q04DX003 (ip), vehicle: water 97 % of control | dose: 50.0 mg/kg/injection, schedule: Q04DX003 (ip), vehicle: water 97 % of control | dose: 100.0 mg/kg/injection, schedule: Q04DX003 (ip), vehicle: water 103 % of control | dose: 200.0 mg/kg/injection, schedule: Q04DX003 (ip), vehicle: water 122 % of control

CCCCCCCS(=O)CCCCCCC
inactive: dose: 6.25 mg/kg/injection, schedule: Q01DX009 (ip), vehicle: saline with Tween-80 102 % of control | dose: 12.5 mg/kg/injection, schedule: Q01DX009 (ip), vehicle: saline with Tween-80 104 % of control | dose: 25.0 mg/kg/injection, schedule: Q01DX009 (ip), vehicle: saline with Tween-80 95 % of control | [9] 104 % of control

O=[N+]([O-])c1ccc(Cc2ccncc2)cc1
inactive: dose: 37.5 mg/kg/injection, schedule: Q01DX009 (ip), vehicle: saline sonified 100 % of control | dose: 75.0 mg/kg/injection, schedule: Q01DX009 (ip), vehicle: saline sonified 95 % of control | dose: 150.0 mg/kg/injection, schedule: Q01DX009 (ip), vehicle: saline sonified 95 % of control

CC1(C#N)CCc2c(ccc3ccccc23)C1=O (stereo unspecified)
inactive: dose: 50.0 mg/kg/injection, schedule: Q04DX003 (ip), vehicle: other 91 % of control | dose: 100.0 mg/kg/injection, schedule: Q04DX003 (ip), vehicle: other 95 % of control | dose: 200.0 mg/kg/injection, schedule: Q04DX003 (ip), vehicle: other 100 % of control

COC(=O)N1c2ccc(OC)cc2C=CC1C#N (stereo unspecified)
inactive: [10] 100 % of control | [11] 100 % of control | [12] 100 % of control

CC12COC(=O)CC1CCC1C2CCC2(C)C1CCC2(C)O (stereo unspecified)
inactive: [9] 90 % of control | [10] 95 % of control | [11] 100 % of control

CN(C)c1ccc(/C=C2\SC(=S)N(Cc3ccco3)C2=O)cc1
inactive: [9] 92 % of control | [10] 91 % of control | [11] 88 % of control

Cc1cc(=O)[nH]c(N/N=C/c2ccc(N(CCCl)CCCl)cc2)n1
inactive: [8] 95 % of control | [2] 86 % of control | [13] 95 % of control

NS(=O)(=O)c1ccc(C(=O)NO)cc1
inactive: dose: 100.0 mg/kg/injection, schedule: Q01DX001 (ip), vehicle: saline 100 % of control | dose: 200.0 mg/kg/injection, schedule: Q01DX001 (ip), vehicle: saline 108 % of control | dose: 400.0 mg/kg/injection, schedule: Q01DX001 (ip), vehicle: saline 108 % of control

CC1=CCC2(C)C(=O)C1CC1=C2CC(C)(C)CC1=O (stereo unspecified)
inactive: [14] 100 % of control | [15] 100 % of control

Cc1ccc(S(=O)(=O)N/N=C/C(O)CO)cc1 (stereo unspecified)
inactive: dose: 3.13 mg/kg/injection, schedule: Q01DX009 (ip), vehicle: other 98 % of control | dose: 6.25 mg/kg/injection, schedule: Q01DX009 (ip), vehicle: other 91 % of control | dose: 12.5 mg/kg/injection, schedule: Q01DX009 (ip), vehicle: other 98 % of control and 101 % of control | dose: 25.0 mg/kg/injection, schedule: Q01DX009 (ip), vehicle: other 98 % of control | dose: 50.0 mg/kg/injection, schedule: Q01DX009 (ip), vehicle: other 96 % of control | dose: 100.0 mg/kg/injection, schedule: Q01DX009 (ip), vehicle: other 99 % of control | dose: 200.0 mg/kg/injection, schedule: Q01DX009 (ip), vehicle: other 98 % of control | dose: 400.0 mg/kg/injection, schedule: Q01DX009 (ip), vehicle: other 102 % of control

CCc1ccc(NC(=O)c2cccc(Cl)c2)cc1
inactive: [8] 109 % of control | [2] 109 % of control | [13] 109 % of control

CCCCN(S(=O)(=O)C(F)(F)F)S(=O)(=O)C(F)(F)F
inactive: [14] 91 % of control | dose: 200.0 mg/kg/injection, schedule: Q01DX009 (ip), vehicle: saline 91 % of control | [15] 100 % of control

COc1cc2c(cc1Oc1c(Oc3c(O)c(OC)cc4c3C(CC(C)C)N(C)CC4)c(OC)cc3c1C(CC(C)C)N(C)CC3)C(CC(C)C)N(C)CC2 (stereo unspecified)
inactive: dose: 12.5 mg/kg/injection, schedule: Q01DX010 (ip), vehicle: saline 95 % of control | dose: 25.0 mg/kg/injection, schedule: Q01DX010 (ip), vehicle: saline 90 % of control | dose: 50.0 mg/kg/injection, schedule: Q01DX010 (ip), vehicle: saline 95 % of control

CCN(C)c1nc(N(C)CC)c2nc(N(C)CC)nc(N(C)CC)c2n1
inactive: dose: 3.13 mg/kg/injection, schedule: Q01DX009 (ip), vehicle: Klucel (hydroxypropylcellulose) (HPC) 108 % of control | dose: 6.25 mg/kg/injection, schedule: Q01DX009 (ip), vehicle: Klucel (hydroxypropylcellulose) (HPC) 99 % of control | dose: 12.5 mg/kg/injection, schedule: Q01DX009 (ip), vehicle: Klucel (hydroxypropylcellulose) (HPC) 99 % of control | dose: 25.0 mg/kg/injection, schedule: Q01DX009 (ip), vehicle: Klucel (hydroxypropylcellulose) (HPC) 106 % of control

CC1(C)N=C(N)N=C(N)N1c1ccc(F)cc1
inactive: dose: 50.0 mg/kg/injection, schedule: Q01DX005 (ip), vehicle: Klucel (hydroxypropylcellulose) (HPC) 117 % of control

Clc1nn2cnnc2c2ccccc12
inactive: dose: 5.0 mg/kg/injection, schedule: Q01DX009 (ip), vehicle: saline 101 % of control | dose: 10.0 mg/kg/injection, schedule: Q01DX009 (ip), vehicle: saline 101 % of control

CN(c1ccccc1)c1ccc([N+](=O)[O-])c2no[n+]([O-])c12
inactive: dose: 15.0 mg/kg/injection, schedule: Q01DX009 (ip), vehicle: saline with Tween-80 106 % of control | dose: 30.0 mg/kg/injection, schedule: Q01DX009 (ip), vehicle: saline with Tween-80 118 % of control

C(#CSCc1ccccc1)SCc1ccccc1
inactive: [3] 105 % of control | [1] 87 % of control | [4] 100 % of control | [5] 100 % of control | [6] 100 % of control | [7] 91 % of control
